From article PMC12152147, “DDB1 engagement defines the selectivity of S656 analogs for cyclin K degradation over CDK inhibition” (EMBO Reports, 2025)
Several values for one entry are separate records, joined by “and”; a condition that tells them apart may be missing. Equal values may be shown once. Read-outs that look alike come from different tables or passages of the source.

Legend:
[1] = tested on: OCI-AML5 cells expressing shRNA targeting CUL4A or CUL4B; test: Dose response in OCI-AML5 expressing shRNAs targeting CUL4A, CUL4B or control; assay type: cell-based, H. sapiens
primary AML specimens = test: Dose-response assays in primary AML specimens (6 days, CellTiterGlo); assay type: cell-based, human; details: Homo sapiens, 144 h
How it was run: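 Primary AML cells in IMDM/15% BIT with SCF, FLT3L, IL3, G-CSF, SR1 and UM729 were exposed to 8-point 1:4 dilutions (10 μM to 0.5 nM) for 6 days. Viability came from CellTiterGlo luminescence, with % inhibition versus DMSO (0.1%) fitted by nonlinear regression.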

OCI-AML5 cells = test: Dose-response proliferative assay in OCI-AML5 (4 days, CellTiterGlo); assay type: cell-based, H. sapiens
How it was run: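 OCI-AML5 cells in αMEM, 10% heat-inactivated FBS plus 10 ng/mL GM-CSF, 300 cells/well, exposed to 8-point 1:4 serial dilutions (10 μM down to 0.5 nM). Viability read after 4 days in culture at 37 °C, 5% CO2.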

CDK9/CyclinT = target: T1, CDK9/CyclinT (Homo sapiens, UniProt P50750); test: CDK9/CyclinT in vitro kinase activity, single concentration 1 μM; assay type: biochemical
T1 construct: purchased BPS Bioscience 79628
Method: (§1) Kinase activity was assessed using the kinase assay kits from BPS Bioscience for CDK1, CDK9 and CDK12 with Kinase Glo MAX in duplicates. Compounds were tested at a single concentration of 1 μM for CDK1 and CDK9 activity, and in a dilution ranging from 0.64 nM to 50 μM for CDK12 activity. Chemiluminescence was read using the Neo Synergy BioTek plate reader.

cyclin KeGFP = test: Cyclin KeGFP reporter system (eGFP/mCherry MFI by flow cytometry);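 as to % degradation cyclin K-eGFP: 10 μM compound for 3 h relative to DMSO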; assay type: cell-based, H. sapiens
How it was run: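 OCI-AML5 clone G7 carrying lentiviral cyclin KeGFP/mCherry reporter. eGFP and mCherry geometric MFI measured by flow cytometry; eGFP/mCherry ratio normalized to DMSO-treated cells.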

CDK12/Cyclin K = target: T2, CDK12/Cyclin K (Homo sapiens, UniProt Q9NYV4); test: CDK12/CyclinK in vitro kinase assay (BPS kit, Kinase Glo MAX); assay type: biochemical; details: for in vitro inhibition of CDK12/Cyclin K activity: in % (unit assumed)
T2 construct: purchased BPS Bioscience 78298
Method: as §1

CDK1 = target: T3, CDK1 (Homo sapiens, UniProt P06493); test: CDK1 in vitro kinase activity, single concentration 1 μM; assay type: biochemical
T3 construct: purchased BPS Bioscience 79597
Method: as §1

[2] = tested on: OCI-AML5 cells expressing shRNAs targeting CDK1, 2, 4, 7, 9, cyclin K; test: Dose response in OCI-AML5 expressing shRNAs targeting CDK1, 2, 4, 7, 9, cyclin K or control; assay type: cell-based, H. sapiens

T2 sequence (Q9NYV4 whole entry): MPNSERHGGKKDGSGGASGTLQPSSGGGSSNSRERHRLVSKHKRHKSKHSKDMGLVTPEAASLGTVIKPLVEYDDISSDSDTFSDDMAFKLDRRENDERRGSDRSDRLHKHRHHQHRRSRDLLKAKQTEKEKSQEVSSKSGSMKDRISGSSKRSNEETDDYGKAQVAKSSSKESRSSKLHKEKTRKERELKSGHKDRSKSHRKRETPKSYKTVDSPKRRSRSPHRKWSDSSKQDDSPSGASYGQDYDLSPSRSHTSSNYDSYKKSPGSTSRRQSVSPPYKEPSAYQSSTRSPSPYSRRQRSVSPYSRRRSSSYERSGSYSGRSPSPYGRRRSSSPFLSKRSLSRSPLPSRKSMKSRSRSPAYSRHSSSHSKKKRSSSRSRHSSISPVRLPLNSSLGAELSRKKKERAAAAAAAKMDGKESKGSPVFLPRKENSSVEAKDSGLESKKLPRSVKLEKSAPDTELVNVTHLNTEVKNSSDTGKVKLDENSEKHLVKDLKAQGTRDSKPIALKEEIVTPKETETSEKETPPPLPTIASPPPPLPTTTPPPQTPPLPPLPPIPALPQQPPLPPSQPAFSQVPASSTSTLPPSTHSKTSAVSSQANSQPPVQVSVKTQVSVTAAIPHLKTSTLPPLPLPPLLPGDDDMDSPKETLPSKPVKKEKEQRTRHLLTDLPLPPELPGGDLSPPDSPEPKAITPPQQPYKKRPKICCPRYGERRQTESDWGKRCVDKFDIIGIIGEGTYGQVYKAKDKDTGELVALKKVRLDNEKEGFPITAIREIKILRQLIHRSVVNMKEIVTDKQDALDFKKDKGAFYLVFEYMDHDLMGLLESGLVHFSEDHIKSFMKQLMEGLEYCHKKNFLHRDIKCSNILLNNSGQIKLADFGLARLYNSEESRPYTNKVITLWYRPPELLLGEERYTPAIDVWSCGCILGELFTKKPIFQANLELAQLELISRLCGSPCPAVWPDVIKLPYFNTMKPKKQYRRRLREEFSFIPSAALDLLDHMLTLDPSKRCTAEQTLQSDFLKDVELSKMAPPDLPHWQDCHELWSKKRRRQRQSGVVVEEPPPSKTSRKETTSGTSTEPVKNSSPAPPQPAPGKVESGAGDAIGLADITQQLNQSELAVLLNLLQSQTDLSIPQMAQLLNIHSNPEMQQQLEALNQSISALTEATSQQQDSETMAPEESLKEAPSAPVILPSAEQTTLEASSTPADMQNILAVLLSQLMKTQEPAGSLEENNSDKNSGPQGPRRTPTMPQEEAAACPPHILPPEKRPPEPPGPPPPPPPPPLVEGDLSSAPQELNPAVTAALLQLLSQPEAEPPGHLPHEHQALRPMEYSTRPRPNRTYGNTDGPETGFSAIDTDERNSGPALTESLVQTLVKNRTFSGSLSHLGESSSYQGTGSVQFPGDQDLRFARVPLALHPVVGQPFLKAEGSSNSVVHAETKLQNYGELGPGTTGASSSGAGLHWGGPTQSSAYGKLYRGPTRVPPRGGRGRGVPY
T2 sequence (O75909 whole entry partner): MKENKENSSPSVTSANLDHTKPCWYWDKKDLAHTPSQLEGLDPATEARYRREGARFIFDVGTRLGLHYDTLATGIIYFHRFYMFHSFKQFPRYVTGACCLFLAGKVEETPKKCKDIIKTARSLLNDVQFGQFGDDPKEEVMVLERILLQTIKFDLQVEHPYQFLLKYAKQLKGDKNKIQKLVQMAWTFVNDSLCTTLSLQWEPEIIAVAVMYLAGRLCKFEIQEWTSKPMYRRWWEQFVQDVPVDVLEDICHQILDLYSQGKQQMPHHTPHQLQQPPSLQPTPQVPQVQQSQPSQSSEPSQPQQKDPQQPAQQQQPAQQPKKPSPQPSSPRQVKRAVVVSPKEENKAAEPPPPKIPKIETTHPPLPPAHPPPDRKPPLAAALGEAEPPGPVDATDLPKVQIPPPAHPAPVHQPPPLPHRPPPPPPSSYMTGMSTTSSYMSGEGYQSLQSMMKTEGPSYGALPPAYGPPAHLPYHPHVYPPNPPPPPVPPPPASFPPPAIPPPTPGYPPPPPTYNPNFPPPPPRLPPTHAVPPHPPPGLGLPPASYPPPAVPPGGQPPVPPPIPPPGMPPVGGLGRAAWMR
T3 sequence (P06493 whole entry): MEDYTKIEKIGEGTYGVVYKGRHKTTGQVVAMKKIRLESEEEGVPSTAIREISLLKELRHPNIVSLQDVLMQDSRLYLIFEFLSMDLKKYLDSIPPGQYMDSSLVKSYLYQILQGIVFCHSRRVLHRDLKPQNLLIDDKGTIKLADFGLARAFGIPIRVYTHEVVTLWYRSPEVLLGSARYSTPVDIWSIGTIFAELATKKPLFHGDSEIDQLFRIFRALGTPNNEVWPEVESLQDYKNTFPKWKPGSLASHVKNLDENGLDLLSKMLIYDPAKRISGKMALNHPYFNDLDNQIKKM
T3 sequence (P14635 whole entry partner): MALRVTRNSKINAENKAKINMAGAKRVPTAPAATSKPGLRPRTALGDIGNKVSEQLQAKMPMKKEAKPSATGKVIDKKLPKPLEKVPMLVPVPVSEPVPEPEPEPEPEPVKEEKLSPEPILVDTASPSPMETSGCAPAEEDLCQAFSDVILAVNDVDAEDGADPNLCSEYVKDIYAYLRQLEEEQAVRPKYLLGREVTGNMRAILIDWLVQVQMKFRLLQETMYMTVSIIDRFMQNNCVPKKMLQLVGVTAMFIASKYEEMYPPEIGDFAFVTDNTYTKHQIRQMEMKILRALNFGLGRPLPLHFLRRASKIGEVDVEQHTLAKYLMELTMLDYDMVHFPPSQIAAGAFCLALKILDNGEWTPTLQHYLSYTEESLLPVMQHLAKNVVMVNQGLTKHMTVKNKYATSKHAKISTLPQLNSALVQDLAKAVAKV
T1 sequence (P50750 whole entry): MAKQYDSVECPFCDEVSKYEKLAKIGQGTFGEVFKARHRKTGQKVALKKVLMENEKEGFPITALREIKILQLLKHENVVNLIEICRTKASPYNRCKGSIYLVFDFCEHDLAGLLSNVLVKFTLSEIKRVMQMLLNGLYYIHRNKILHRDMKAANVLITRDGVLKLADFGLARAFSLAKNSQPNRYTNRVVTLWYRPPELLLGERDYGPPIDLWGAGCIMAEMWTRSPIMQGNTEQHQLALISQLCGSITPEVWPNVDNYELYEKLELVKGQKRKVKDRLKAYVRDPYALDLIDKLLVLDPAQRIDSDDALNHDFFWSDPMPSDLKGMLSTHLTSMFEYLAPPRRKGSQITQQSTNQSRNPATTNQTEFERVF
T1 sequence (O60563 whole entry partner): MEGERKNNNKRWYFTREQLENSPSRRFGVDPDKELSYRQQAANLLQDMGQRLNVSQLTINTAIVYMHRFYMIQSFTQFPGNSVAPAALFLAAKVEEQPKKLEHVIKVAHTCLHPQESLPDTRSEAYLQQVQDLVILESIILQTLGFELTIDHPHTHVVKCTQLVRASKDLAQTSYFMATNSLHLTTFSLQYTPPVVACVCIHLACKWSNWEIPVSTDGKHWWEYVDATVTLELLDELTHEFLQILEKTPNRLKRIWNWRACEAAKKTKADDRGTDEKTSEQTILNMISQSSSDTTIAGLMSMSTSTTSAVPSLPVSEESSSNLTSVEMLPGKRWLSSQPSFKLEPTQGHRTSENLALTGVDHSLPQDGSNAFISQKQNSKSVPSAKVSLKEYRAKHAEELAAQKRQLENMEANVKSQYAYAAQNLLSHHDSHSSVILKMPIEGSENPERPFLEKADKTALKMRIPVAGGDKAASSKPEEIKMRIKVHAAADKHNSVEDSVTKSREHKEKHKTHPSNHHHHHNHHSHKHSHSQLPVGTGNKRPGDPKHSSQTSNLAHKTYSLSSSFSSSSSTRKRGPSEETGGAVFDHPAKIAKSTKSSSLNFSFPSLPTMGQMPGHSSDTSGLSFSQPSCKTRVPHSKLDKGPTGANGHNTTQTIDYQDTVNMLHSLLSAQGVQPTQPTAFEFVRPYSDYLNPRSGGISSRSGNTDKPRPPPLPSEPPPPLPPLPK

IC50 (OCI-AML5 cells; Homo sapiens, OCI-AML-5, 96 h, 4 days incubation, read-out: IC50 OCI-AML5): 743 nM
IC50 (OCI-AML5 cells; Homo sapiens, OCI-AML-5, 96 h, OCI-AML5, regular media, 4 days, read-out: S656 IC50, Media): 949 nM
IC50 (OCI-AML5 cells; OCI-AML5, regular media, 4 days, read-out: S656 IC50, Media): 675 nM and 712 nM
in vitro inhibitory activity for CDK9 (CDK9/CyclinT; 1 μM): displays in vitro inhibitory activity
inhibition at 1 µM (CDK9/CyclinT; single concentration 1 μM): 59%
in vitro inhibition of CDK12/Cyclin K activity (CDK12/Cyclin K; Log10 (uM) 0.30103): 29.97 and 30.05 and 16.95
in vitro inhibition of CDK12/Cyclin K activity (CDK12/Cyclin K; Log10 (uM) 1): 64.47 and 62.45 and 59.28
in vitro inhibition of CDK12/Cyclin K activity (CDK12/Cyclin K; Log10 (uM) 1.69897): 82.67 and 75.84 and 109.95
IC50 (CDK12/Cyclin K; read-out: IC50, in vitro inhibition of CDK12/Cyclin K activity): 6000 nM
in vitro inhibitory activity for CDK1 (CDK1; 1 μM): displays in vitro inhibitory activity
inhibition at 1 µM (CDK1; single concentration 1 μM): 70%
IC50 ([2]; Homo sapiens, OCI-AML-5, 96 h, OCI-AML5, 4 days, read-out: IC50, sh CDK1): 499 nM
IC50 ([2]; Homo sapiens, OCI-AML-5, 96 h, OCI-AML5, 4 days, read-out: IC50, sh CDK2): 842 nM
IC50 ([2]; Homo sapiens, OCI-AML-5, 96 h, OCI-AML5, 4 days, read-out: IC50, sh CDK4): 577 nM
IC50 ([2]; Homo sapiens, OCI-AML-5, 96 h, OCI-AML5, 4 days, read-out: IC50, sh CDK7): 791 nM
IC50 ([2]; Homo sapiens, OCI-AML-5, 96 h, OCI-AML5, 4 days, read-out: IC50, sh CDK9): 548 nM
IC50 ([2]; Homo sapiens, OCI-AML-5, 96 h, OCI-AML5, 4 days, read-out: IC50, sh Cyclin K): 175 nM
IC50 ([2]; Homo sapiens, OCI-AML-5, 96 h, OCI-AML5, 4 days, read-out: IC50, sh ctrl): 756 nM
IC50 ([2]; Homo sapiens, OCI-AML-5, OCI-AML5 expressing shRNA CCNK (cyclin K), read-out: IC50 shRNA CCNK): 194 nM
IC50 ([2]; Homo sapiens, OCI-AML-5, OCI-AML5 expressing shRNA CDK1, read-out: IC50 shRNA CDK1): 478 nM
IC50 ([2]; Homo sapiens, OCI-AML-5, OCI-AML5 expressing shRNA CDK2, read-out: IC50 shRNA CDK2): 794 nM
IC50 ([2]; Homo sapiens, OCI-AML-5, OCI-AML5 expressing shRNA CDK4, read-out: IC50 shRNA CDK4): 690 nM
IC50 ([2]; Homo sapiens, OCI-AML-5, OCI-AML5 expressing shRNA CDK9, read-out: IC50 shRNA CDK9): 548 nM
IC50 ([2]; OCI-AML5, 4 days, read-out: IC50, sh CDK1): 480 nM
IC50 ([2]; OCI-AML5, 4 days, read-out: IC50, sh CDK2): 928 nM and 685 nM
IC50 ([2]; OCI-AML5, 4 days, read-out: IC50, sh CDK4): 744 nM and 662 nM
IC50 ([2]; OCI-AML5, 4 days, read-out: IC50, sh CDK7): 774 nM and 662 nM
IC50 ([2]; OCI-AML5, 4 days, read-out: IC50, sh CDK9): 589 nM and 628 nM
IC50 ([2]; OCI-AML5, 4 days, read-out: IC50, sh Cyclin K): 288 nM and 186 nM
IC50 ([2]; OCI-AML5, 4 days, read-out: IC50, sh ctrl): 713 nM and 664 nM
Structure (SMILES): CN(C)c1ccc(CC(=O)Nc2ncc(SCc3cccnc3)s2)cc1 [S656]
potency upon CUL4A or CUL4B downregulation (for SNS-032, THZ531 also DDB1 depletion) ([1]; OCI-AML5, 4 days): impaired
Ratio shCUL4A/shCTRL ([1]; ratio of IC50 in shCUL4A vs shCTRL OCI-AML5 cells): 2.79
IC50 (primary AML specimens; primary AML specimen 03H109, 6 days, read-out: IC50): 761 nM
IC50 (primary AML specimens; primary AML specimen 04H055, 6 days, read-out: IC50): 1040 nM
IC50 (primary AML specimens; primary AML specimen 04H096, 6 days, read-out: IC50): 846 nM
IC50 (primary AML specimens; primary AML specimen 04H138, 6 days, read-out: IC50): 1990 nM
IC50 (primary AML specimens; primary AML specimen 05H113, 6 days, read-out: IC50): 897 nM
IC50 (primary AML specimens; primary AML specimen 05H149, 6 days, read-out: IC50): 1380 nM
IC50 (primary AML specimens; primary AML specimen 05H193, 6 days, read-out: IC50): 999 nM
IC50 (primary AML specimens; primary AML specimen 06H088, 6 days, read-out: IC50): 1260 nM
IC50 (primary AML specimens; primary AML specimen 06H117, 6 days, read-out: IC50): 983 nM
IC50 (primary AML specimens; primary AML specimen 06H151, 6 days, read-out: IC50): 683 nM
IC50 (primary AML specimens; primary AML specimen 07H003, 6 days, read-out: IC50): 2190 nM
IC50 (primary AML specimens; primary AML specimen 07H131, 6 days, read-out: IC50): 2680 nM
IC50 (primary AML specimens; primary AML specimen 07H144, 6 days, read-out: IC50): 999 nM
IC50 (primary AML specimens; primary AML specimen 07H155, 6 days, read-out: IC50): 2440 nM
IC50 (primary AML specimens; primary AML specimen 08H018, 6 days, read-out: IC50): 2210 nM
IC50 (primary AML specimens; primary AML specimen 08H021, 6 days, read-out: IC50): 1010 nM
IC50 (primary AML specimens; primary AML specimen 08H056, 6 days, read-out: IC50): 2130 nM
IC50 (primary AML specimens; primary AML specimen 08H063, 6 days, read-out: IC50): 2380 nM
IC50 (primary AML specimens; primary AML specimen 08H085, 6 days, read-out: IC50): 1010 nM
IC50 (primary AML specimens; primary AML specimen 08H108, 6 days, read-out: IC50): 826 nM
IC50 (primary AML specimens; primary AML specimen 08H118, 6 days, read-out: IC50): 887 nM
IC50 (primary AML specimens; primary AML specimen 09H016, 6 days, read-out: IC50): 974 nM
IC50 (primary AML specimens; primary AML specimen 09H070, 6 days, read-out: IC50): 2240 nM
IC50 (primary AML specimens; primary AML specimen 10H014, 6 days, read-out: IC50): 852 nM
IC50 (primary AML specimens; primary AML specimen 10H046, 6 days, read-out: IC50): 972 nM
IC50 (primary AML specimens; primary AML specimen 10H107, 6 days, read-out: IC50): 1560 nM
IC50 (primary AML specimens; primary AML specimen 10H127, 6 days, read-out: IC50): 1440 nM
IC50 (primary AML specimens; primary AML specimen 10H161, 6 days, read-out: IC50): 1170 nM
IC50 (primary AML specimens; primary AML specimen 10H174, 6 days, read-out: IC50): 887 nM
IC50 (primary AML specimens; primary AML specimen 11H008, 6 days, read-out: IC50): 1450 nM
IC50 (primary AML specimens; primary AML specimen 11H019, 6 days, read-out: IC50): 1090 nM
IC50 (primary AML specimens; primary AML specimen 11H170, 6 days, read-out: IC50): 2330 nM
IC50 (primary AML specimens; primary AML specimen 11H217, 6 days, read-out: IC50): 1240 nM
IC50 (primary AML specimens; primary AML specimen 11H232, 6 days, read-out: IC50): 1130 nM
IC50 (primary AML specimens; primary AML specimen 12H033, 6 days, read-out: IC50): 2380 nM
IC50 (primary AML specimens; primary AML specimen 12H055, 6 days, read-out: IC50): 1390 nM
IC50 (primary AML specimens; primary AML specimen 12H148, 6 days, read-out: IC50): 1480 nM
IC50 (primary AML specimens; primary AML specimen 13H053, 6 days, read-out: IC50): 2190 nM
IC50 (primary AML specimens; primary AML specimen 15H045, 6 days, read-out: IC50): 680 nM
IC50 (primary AML specimens; primary AML specimen 17H065, 6 days, read-out: IC50): 1550 nM
IC50 (primary AML specimens; read-out: median IC50 in a panel of 40 primary AMLs, 6 days): 1210 nM
% cyclin KeGFP degradation (cyclin KeGFP; 3 h, 10 μM, compared to DMSO, OCI-AML5 G7 clone): 75%
MFI of cyclin KeGFP over mCherry (cyclin KeGFP; OCI-AML5 G7 clone, 3 h, 10 μM, normalized to DMSO (=100)): 23.8 and 23.9 and 23.3 and 23.2 and 22.8
% degradation cyclin K-eGFP (cyclin KeGFP; cyclin K-eGFP reporter): 75%
Class ([2]; class from shRNA IC50 profile and cyclin K-eGFP degradation): mixed 1-2
